Data as given in patent US10597388B2, “Pyridazinone herbicides” (FMC CORPORATION, priority 2014, dated 2020).

Assays:
Experiment in all cases: Test D controlled growth environment herbicide test, pre- and postemergence
Assay type in all cases: in vivo
[1] = tested on: chickweed (common chickweed, Stellaria media)
In short: (§1)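 Species sown in silt loam and sprayed preemergence, or grown in peat-based medium to 2–18 cm (1- to 4-leaf stage) and sprayed postemergence, with compounds in non-phytotoxic solvent plus surfactant. Visual injury scored versus controls after 14–21 d in a controlled environment, 0 (no effect) to 100 (complete control).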

[2] = tested on: field poppy (Papaver rhoeas)
In short: as §1

[3] = tested on: windgrass (Apera spica-venti)
In short: as §1

[4] = tested on: deadnettle (henbit deadnettle, Lamium amplexicaule)
In short: as §1

[5] = tested on: oilseed rape (Brassica napus)
In short: as §1

[6] = tested on: blackgrass (Alopecurus myosuroides)
In short: as §1

[7] = tested on: pigweed (Amaranthus retroflexus)
In short: as §1

[8] = tested on: radish, wild (wild radish, Raphanus raphanistrum)
In short: as §1

[9] = tested on: field violet (Viola arvensis)
In short: as §1

[10] = tested on: ryegrass, Italian (Italian ryegrass, Lolium multiflorum)
In short: as §1

[11] = tested on: Russian thistle (Salsola kali)
In short: as §1

[12] = tested on: wheat, winter (winter wheat, Triticum aestivum)
In short: as §1

[13] = tested on: wheat, spring (spring wheat, Triticum aestivum)
In short: as §1

[14] = Postemergence, 31 g ai/ha, scale 0 to 100 (0 no effect, 100 complete control)
[15] = Postemergence, 125 g ai/ha, visual rating on scale 0 (no effect) to 100 (complete control), 14 to 21 d
[16] = Postemergence, 250 g ai/ha, scale 0 to 100 (0 no effect, 100 complete control)
[17] = Preemergence, 125 g ai/ha, scale 0 to 100 (0 no effect, 100 complete control)
[18] = Preemergence, 250 g ai/ha, scale 0 to 100 (0 no effect, 100 complete control)
[19] = postemergence, 62 g ai/ha, scale 0 to 100, 0 no effect, 100 complete control

With `CCOC(=O)Oc1c(C)nn(C)c(=O)c1-c1c(C)sc2ccc(C)cc12` [Compound 82] the “Chickweed plant response rating” value [1, 14] was 80, the “Plant response rating, Chickweed” value [1, 15] was 95 and the “Plant response rating, Chickweed” value [1, 16] was 100. For the same compound, the “Plant response rating (scale of 0 to 100), Chickweed” value ([1]; Preemergence, 31 g ai/ha) was 100, the “Plant response rating (scale of 0 to 100), Chickweed” value ([1]; Preemergence, 62 g ai/ha) was 100 and the “Plant response rating, Chickweed” value [1, 17] was 100. For the same compound, the “Plant response rating, Chickweed” value [1, 18] was 100, the “Plant response rating, Chickweed” value [1, 19] was 90 and the “Field Poppy plant response rating” value [2, 14] was 70. The “Plant response rating, Field Poppy” value [2, 15] was 95, the “Plant response rating, Field Poppy” value [2, 16] was 100 and the “Plant response rating (scale of 0 to 100), Field Poppy” value ([2]; Preemergence, 31 g ai/ha) was 95. The “Plant response rating (scale of 0 to 100), Field Poppy” value ([2]; Preemergence, 62 g ai/ha) was 100, the “Plant response rating, Field Poppy” value [2, 17] was 100 and the “Plant response rating, Field Poppy” value [2, 18] was 100. For the same compound, the “Plant response rating, Field Poppy” value [2, 19] was 85, the “Windgrass plant response rating” value [3, 14] was 70 and the “Plant response rating, Windgrass” value [3, 15] was 80. For the same compound, the “Plant response rating, Windgrass” value [3, 16] was 85, the “Plant response rating (scale of 0 to 100), Windgrass” value ([3]; Preemergence, 31 g ai/ha) was 75 and the “Plant response rating (scale of 0 to 100), Windgrass” value ([3]; Preemergence, 62 g ai/ha) was 80. For the same compound, the “Plant response rating, Windgrass” value [3, 17] was 100, the “Plant response rating, Windgrass” value [3, 18] was 100 and the “Plant response rating, Windgrass” value [3, 19] was 75. The “Deadnettle plant response rating” value [4, 14] was 10, the “Plant response rating, Deadnettle” value [4, 15] was 25 and the “Plant response rating, Deadnettle” value [4, 16] was 35. For the same compound, the “Plant response rating (scale of 0 to 100), Deadnettle” value ([4]; Preemergence, 31 g ai/ha) was 10, the “Plant response rating (scale of 0 to 100), Deadnettle” value ([4]; Preemergence, 62 g ai/ha) was 25 and the “Plant response rating, Deadnettle” value [4, 17] was 25. The “Plant response rating, Deadnettle” value [4, 18] was 70, the “Plant response rating, Deadnettle” value [4, 19] was 10 and the “Oilseed Rape plant response rating” value [5, 14] was 25. The “Plant response rating, Oilseed Rape” value [5, 15] was 60, the “Plant response rating, Oilseed Rape” value [5, 16] was 80 and the “Plant response rating (scale of 0 to 100), Oilseed Rape” value ([5]; Preemergence, 31 g ai/ha) was 30. The “Plant response rating (scale of 0 to 100), Oilseed Rape” value ([5]; Preemergence, 62 g ai/ha) was 35, the “Plant response rating, Oilseed Rape” value [5, 17] was 35 and the “Plant response rating, Oilseed Rape” value [5, 18] was 60. The “Plant response rating, Oilseed Rape” value [5, 19] was 45, the “Blackgrass plant response rating” value [6, 14] was 45 and the “Plant response rating, Blackgrass” value [6, 15] was 75. For the same compound, the “Plant response rating, Blackgrass” value [6, 16] was 80, the “Plant response rating (scale of 0 to 100), Blackgrass” value ([6]; Preemergence, 31 g ai/ha) was 70 and the “Plant response rating, Blackgrass” value ([6]; Preemergence, 62 g ai/ha, scale 0 to 100 (0 no effect, 100 complete control)) was 75. For the same compound, the “Plant response rating, Blackgrass” value [6, 17] was 75, the “Plant response rating, Blackgrass” value [6, 18] was 80 and the “Plant response rating, Blackgrass” value [6, 19] was 70. For the same compound, the “Pigweed plant response rating” value [7, 14] was 90, the “Plant response rating, Pigweed” value [7, 15] was 100 and the “Plant response rating, Pigweed” value [7, 16] was 100. For the same compound, the “Plant response rating (scale of 0 to 100), Pigweed” value ([7]; Preemergence, 31 g ai/ha) was 100, the “Plant response rating (scale of 0 to 100), Pigweed” value ([7]; Preemergence, 62 g ai/ha) was 100 and the “Plant response rating, Pigweed” value [7, 17] was 100. For the same compound, the “Plant response rating, Pigweed” value [7, 18] was 100, the “Plant response rating, Pigweed” value [7, 19] was 100 and the “Radish, Wild plant response rating” value [8, 14] was 25. For the same compound, the “Plant response rating, Radish, Wild” value [8, 15] was 50, the “Plant response rating, Radish, Wild” value [8, 16] was 60 and the “Plant response rating (scale of 0 to 100), Radish, Wild” value ([8]; Preemergence, 31 g ai/ha) was 65. For the same compound, the “Plant response rating (scale of 0 to 100), Radish, Wild” value ([8]; Preemergence, 62 g ai/ha) was 60, the “Plant response rating, Radish, Wild” value [8, 17] was 60 and the “Plant response rating, Radish, Wild” value [8, 18] was 100. For the same compound, the “Plant response rating, Radish, Wild” value [8, 19] was 20, the “Field Violet plant response rating” value [9, 14] was 95 and the “Plant response rating, Field Violet” value [9, 15] was 100. The “Plant response rating, Field Violet” value [9, 16] was 100, the “Plant response rating (scale of 0 to 100), Field Violet” value ([9]; Preemergence, 31 g ai/ha) was 100 and the “Plant response rating (scale of 0 to 100), Field Violet” value ([9]; Preemergence, 62 g ai/ha) was 90. For the same compound, the “Plant response rating, Field Violet” value [9, 17] was 95, the “Plant response rating, Field Violet” value [9, 18] was 100 and the “Plant response rating, Field Violet” value [9, 19] was 100. The “Ryegrass, Italian plant response rating” value [10, 14] was 85, the “Plant response rating, Ryegrass, Italian” value [10, 15] was 90 and the “Plant response rating, Ryegrass, Italian” value [10, 16] was 90. The “Plant response rating (scale of 0 to 100), Ryegrass, Italian” value ([10]; Preemergence, 31 g ai/ha) was 75, the “Plant response rating (scale of 0 to 100), Ryegrass, Italian” value ([10]; Preemergence, 62 g ai/ha) was 80 and the “Plant response rating, Ryegrass, Italian” value [10, 17] was 90. The “Plant response rating, Ryegrass, Italian” value [10, 18] was 95, the “Plant response rating, Ryegrass, Italian” value [10, 19] was 85 and the “Russian Thistle plant response rating” value [11, 14] was 65. For the same compound, the “Plant response rating, Russian Thistle” value [11, 15] was 75, the “Plant response rating, Russian Thistle” value [11, 16] was 85 and the “Plant response rating (scale of 0 to 100), Russian Thistle” value ([11]; Preemergence, 31 g ai/ha) was 10. For the same compound, the “Plant response rating (scale of 0 to 100), Russian Thistle” value ([11]; Preemergence, 62 g ai/ha) was 15, the “Plant response rating, Russian Thistle” value [11, 17] was 65 and the “Plant response rating, Russian Thistle” value [11, 18] was 65. The “Plant response rating, Russian Thistle” value [11, 19] was 75, the “Wheat, Winter plant response rating” value [12, 14] was 0 and the “Plant response rating, Wheat, Winter” value [12, 15] was 0. The “Plant response rating, Wheat, Winter” value [12, 16] was 0, the “Plant response rating (scale of 0 to 100), Wheat, Winter” value ([12]; Preemergence, 31 g ai/ha) was 0 and the “Plant response rating (scale of 0 to 100), Wheat, Winter” value ([12]; Preemergence, 62 g ai/ha) was 0. For the same compound, the “Plant response rating, Wheat, Winter” value [12, 17] was 0, the “Plant response rating, Wheat, Winter” value [12, 18] was 10 and the “Plant response rating, Wheat, Winter” value [12, 19] was 0. For the same compound, the “Wheat, Spring plant response rating” value [13, 14] was 0, the “Plant response rating, Wheat, Spring” value [13, 15] was 0 and the “Plant response rating, Wheat, Spring” value [13, 16] was 5. The “Plant response rating (scale of 0 to 100), Wheat, Spring” value ([13]; Preemergence, 31 g ai/ha) was 0, the “Plant response rating (scale of 0 to 100), Wheat, Spring” value ([13]; Preemergence, 62 g ai/ha) was 0 and the “Plant response rating, Wheat, Spring” value [13, 17] was 15. For the same compound, the “Plant response rating, Wheat, Spring” value [13, 18] was 40 and the “Plant response rating, Wheat, Spring” value [13, 19] was 0.
